Like-named read-outs stand apart in the source and are kept apart here.
Legend:
[1] = Non-specific protein binding (rapid equilibrium dialysis); type: in vitro ADME, Sprague-Dawley rats; conditions: both sexes, Sprague-Dawley, RED device, 4-hour incubation at 37° C.
Description: Plasma and tissue exposures of exemplary compounds were scaled by their non-specific affinity for protein binding in target tissues or fluids to determine the fraction of compound available for interaction with the target. Non-specific binding was determined in blood plasma and brain homogenate collected from mixed-sex Sprague-Dawley rats.
Known concentrations of test compounds were mixed with plasma or brain homogenate and incubated in the donor chamber of a rapid equilibrium dialysis (RED) device with empty PBS buffer in the receiving chamber. After a 4-hour incubation at 37° C. in an orbital shaking incubator, compound in each chamber was quantified by LC-MS/MS. The unbound fraction (fu,tissue) was calculated using the following formula:
[formula] • where: • fu,tissue is the unbound fraction in the tissue; • fu,homogenate is the ratio of concentration in the buffer chamber to concentration in the sample chamber; and • D is the dilution factor used to produce the sample.

[2] = In vitro stability in rat plasma; type: in vitro ADME; conditions: 5 μM, 37° C.
Description: (§1) Bioavailability can be estimated by compound stability when exposed to conditions in the body. As an initial assessment of stability properties in a variety of conditions present in animals, exemplary compounds were tested for stability in a battery of simulated body compartments. Compounds were tested for stability in the following solutions: simulated gastric fluid (SGF: 34.2 mM NaCl, pH 1.2), simulated gastric fluid with the digestive enzyme pepsin (SGF+Enzyme: SGF with 3.2 mg/ml pepsin), simulated intestinal fluid with the mixture of enzymes in porcine pancreatin (SIF+Enzyme: 28.7 mM NaH2PO4, 105.7 mM NaCl, pH 6.8, 10 mg/ml pancreatin), rat plasma, and human plasma.
(§2) Test compounds were incubated at a final concentration of 5 μM in the above solutions at 37° C. with samples removed at the following time points: 0, 1, 2, and 4 hours. Reactions were stopped and prepared for quantification by addition of excess quench solution containing an internal standard (acetonitrile, 200 ng/mL bucetin). Test compound and internal standard in each sample was quantified by LC-MS/MS, and after internal normalization to bucetin, test compound concentration was expressed as a percentage of concentration at the 0-hour time point. Stability in the relevant test solution was then determined by the percent remaining at the 4-hour time point.

HGF/MET system = target: T1, HGF/MET system (Homo sapiens, UniProt P08581+P14210); assay: Phospho-MET ELISA; type: cell-based; conditions: HEK293 cells, 1 ng/mL recombinant HGF, 15 minutes, pMET ELISA
T1 construct: HEK293 cells were prepared by passage into 6-well multi-plates; endogenous in cells; host or cells: HEK293
Summary of the method: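 Serum-starved (≥8 h) HEK293 cells treated with compound plus 1 ng/mL recombinant HGF for 15 min at 37° C in triplicate, then lysed in RIPA. Equal protein (50–100 μg, BCA-normalized) run in pMET sandwich ELISA, A450 read. Responses scaled 1–10 between 1 ng/mL and 10 ng/mL HGF means, using peak efficacy.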

[3] = In vitro stability in human plasma; type: in vitro ADME; conditions: 5 μM, 37° C.
Description: as §1, §2

[4] = In vivo tissue distribution; set-up: species or system Sprague-dawley rats; conditions: rat
Description: The rate of distribution to target tissues is an important feature of therapeutic molecules. Tissue distribution of exemplary compounds was performed in mixed-sex Sprague-dawley rats. Test compounds were delivered via tail vein injection (IV) and tissues were collected at Tmax (10 minutes post administration). Animals were deeply anesthetized with isoflurane and whole blood was collected from the right atrium and processed by centrifugation to produce plasma. Animals were then fully perfused with PBS administered to the left ventricle to prevent blood contamination of tissues.
Tissues were collected and homogenized, and compound content in the target tissue was quantified by LC-MS/MS. Tissue distribution rates were determined by dividing the tissue concentration of compound by the plasma concentration and multiplying by 100.

[5] = In vitro stability in simulated gastric and intestinal fluids; type: in vitro ADME; conditions: 37° C.; for SGF + Enz (compound remaining after 4 hours): SGF with 3.2 mg/ml pepsin; for SGF + Enz (compound remaining after 4 hours) / SIF (compound remaining after 4 hours): 5 μM; for SGF (compound remaining after 4 hours): simulated gastric fluid pH 1.2, 5 μM; for SIF (compound remaining after 4 hours): simulated intestinal fluid pH 6.8 with 10 mg/ml pancreatin
Description: as §1, §2

[6] = rat blood plasma, read-out: Unbound Fraction Plasma
[7] = rat brain homogenate, read-out: Unbound Fraction Brain

T1 sequence (P08581 308-1390 limits assumed): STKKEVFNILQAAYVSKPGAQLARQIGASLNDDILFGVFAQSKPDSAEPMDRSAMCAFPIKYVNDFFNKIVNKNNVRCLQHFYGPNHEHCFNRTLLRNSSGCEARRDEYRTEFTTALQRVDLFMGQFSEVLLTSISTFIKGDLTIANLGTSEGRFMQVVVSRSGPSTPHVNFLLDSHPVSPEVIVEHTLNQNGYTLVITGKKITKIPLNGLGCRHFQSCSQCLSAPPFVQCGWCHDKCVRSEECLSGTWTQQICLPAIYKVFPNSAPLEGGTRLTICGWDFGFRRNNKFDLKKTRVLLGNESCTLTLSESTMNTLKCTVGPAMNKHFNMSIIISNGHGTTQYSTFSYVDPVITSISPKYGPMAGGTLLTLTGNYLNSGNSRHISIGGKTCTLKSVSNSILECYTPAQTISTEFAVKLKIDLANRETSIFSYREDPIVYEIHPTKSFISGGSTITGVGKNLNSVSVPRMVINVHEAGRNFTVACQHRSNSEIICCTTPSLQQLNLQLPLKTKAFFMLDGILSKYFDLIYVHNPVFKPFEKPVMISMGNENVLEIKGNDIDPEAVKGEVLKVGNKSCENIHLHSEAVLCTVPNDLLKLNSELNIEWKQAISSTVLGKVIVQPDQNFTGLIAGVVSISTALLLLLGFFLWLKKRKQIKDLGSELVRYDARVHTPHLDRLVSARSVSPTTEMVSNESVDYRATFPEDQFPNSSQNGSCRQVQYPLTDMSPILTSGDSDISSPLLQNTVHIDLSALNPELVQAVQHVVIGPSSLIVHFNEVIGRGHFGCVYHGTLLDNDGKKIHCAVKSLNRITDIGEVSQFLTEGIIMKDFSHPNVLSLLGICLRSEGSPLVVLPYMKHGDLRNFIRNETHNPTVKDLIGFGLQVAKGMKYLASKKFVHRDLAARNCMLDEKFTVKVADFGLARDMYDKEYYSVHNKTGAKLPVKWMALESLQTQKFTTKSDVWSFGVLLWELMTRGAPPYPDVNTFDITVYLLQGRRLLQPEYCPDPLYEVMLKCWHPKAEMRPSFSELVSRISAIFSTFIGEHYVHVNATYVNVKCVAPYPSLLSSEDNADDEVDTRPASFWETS
T1 sequence (P14210 32-494 limits assumed): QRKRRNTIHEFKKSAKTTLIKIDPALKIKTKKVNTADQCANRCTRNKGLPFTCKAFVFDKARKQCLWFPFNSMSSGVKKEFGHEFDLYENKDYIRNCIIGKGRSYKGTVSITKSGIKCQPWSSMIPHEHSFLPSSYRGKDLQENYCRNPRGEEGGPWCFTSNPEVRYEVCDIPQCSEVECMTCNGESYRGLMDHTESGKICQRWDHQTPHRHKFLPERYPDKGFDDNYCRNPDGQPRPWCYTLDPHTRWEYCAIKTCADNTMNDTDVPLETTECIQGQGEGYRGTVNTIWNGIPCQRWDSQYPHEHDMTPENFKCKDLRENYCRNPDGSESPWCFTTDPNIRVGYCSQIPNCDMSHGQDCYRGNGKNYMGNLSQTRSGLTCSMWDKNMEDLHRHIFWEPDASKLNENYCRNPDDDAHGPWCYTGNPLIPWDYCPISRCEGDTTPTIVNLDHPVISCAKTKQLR

Row | SMILES | fraction unbound at 4 h [1, 6] | fraction unbound at 4 h [1, 7] | Rat Plasma (compound remaining after 4 hours) [2] | Potency (augmentation of MET phosphorylation) (HGF/MET system) | Human Plasma (compound remaining after 4 hours) [3] | Tissue Distribution (% Plasma exposure at 10 min post IV dose) Brain [4] | Tissue Distribution (% Plasma exposure at 10 min post IV dose) Cerebellum [4] | Tissue Distribution (% Plasma exposure at 10 min post IV dose) Cortex [4] | Tissue Distribution (% Plasma exposure at 10 min post IV dose) Hippocampus [4] | SGF + Enz (compound remaining after 4 hours) [5] | SGF (compound remaining after 4 hours) [5] | SIF (compound remaining after 4 hours) [5] | Tissue Distribution (% Plasma exposure at 10 min post IV dose) Muscle ([4]; muscle) | Tissue Distribution (% Plasma exposure at 10 min post IV dose) Sciatic Nerve [4]
1 | CCC(C)CN1CC2N(Cc3ccc(C(F)(F)F)cc3)CCC(=O)N2[C@@H](C)C1=O (some centres unmarked) [Compound 5a] | < 0.1 | < 0.1 | ++ (++ indicates 40-79% compound remaining after 4 hours) | + (+ indicates maximum potency at or above 100 nM) | ++ (++ indicates 40-79% compound remaining after 4 hours) | ++++ (++++ indicates distribution above 70%) | ++++ (++++ indicates distribution above 70%) | ++++ (++++ indicates distribution above 70%) | ++++ (++++ indicates distribution above 70%) | + (+ indicates 20-39% compound remaining after 4 hours) | +++ (+++ indicates 80-99% compound remaining after 4 hours) | +++ (+++ indicates 80-99% compound remaining after 4 hours) | – | –
2 | CCC(C)CN1CC2N(Cc3ccc(OC(F)F)cc3)CCC(=O)N2[C@@H](C)C1=O (some centres unmarked) [Compound 6a] | 0.1 to 0.5 | < 0.1 | +++ (+++ indicates 80-99% compound remaining after 4 hours) | + (+ indicates maximum potency at or above 100 nM) | ++ (++ indicates 40-79% compound remaining after 4 hours) | ++ (++ indicates distribution between 5 and 39%) | ++ (++ indicates distribution between 5 and 39%) | ++ (++ indicates distribution between 5 and 39%) | ++ (++ indicates distribution between 5 and 39%) | + (+ indicates 20-39% compound remaining after 4 hours) | +++ (+++ indicates 80-99% compound remaining after 4 hours) | ++ (++ indicates 40-79% compound remaining after 4 hours) | ++++ (++++ indicates distribution above 70%) | ++++ (++++ indicates distribution above 70%)
3 | CCC(C)CN1CC2N(C(=O)c3ccc(F)cc3)CCC(=O)N2C(C)C1=O (centres unmarked) [Compound 11, 1-(4-fluorobenzoyl)-6-methyl-8-(2-methylbutyl)hexahydro-4H-pyrazino[1,2-a]pyrimidine-4,7(6H)-dione] | < 0.1 | 0.1 to 0.5 | ++++ (++++ indicates 100% compound remaining after 4 hours) | +++ (+++ indicates maximum potency at or above 1 nM) | +++ (+++ indicates 80-99% compound remaining after 4 hours) | ++ (++ indicates distribution between 5 and 39%) | + (+ indicates distribution between 0.05 and 5%) | + (+ indicates distribution between 0.05 and 5%) | + (+ indicates distribution between 0.05 and 5%) | +++ (+++ indicates 80-99% compound remaining after 4 hours) | +++ (+++ indicates 80-99% compound remaining after 4 hours) | ++++ (++++ indicates 100% compound remaining after 4 hours) | – | ++ (++ indicates distribution between 5 and 39%)
4 | CCC(C)CN1CC2N(C(=O)c3ccc(C(F)(F)F)c(Cl)c3)CCC(=O)N2C(C)C1=O (centres unmarked) [Compound 12, 1-(3-chloro-4-(trifluoromethyl)benzoyl)-6-methyl-8-(2-methylbutyl)hexahydro-4H-pyrazino[1,2-a]pyrimidine-4,7(6H)-dione] | 0.1 to 0.5 | 0.1 to 0.5 | ++++ (++++ indicates 100% compound remaining after 4 hours) | ++ (++ indicates maximum potency at or above 10 nM) | +++ (+++ indicates 80-99% compound remaining after 4 hours) | ++ (++ indicates distribution between 5 and 39%) | ++ (++ indicates distribution between 5 and 39%) | ++ (++ indicates distribution between 5 and 39%) | ++ (++ indicates distribution between 5 and 39%) | +++ (+++ indicates 80-99% compound remaining after 4 hours) | +++ (+++ indicates 80-99% compound remaining after 4 hours) | ++ (++ indicates 40-79% compound remaining after 4 hours) | – | +++ (+++ indicates distribution between 40 and 69%)
5 | CC1C(=O)N(CCC2CCC2)CC2N(C(=O)c3ccc(C(F)(F)F)cc3)CCC(=O)N12 (centres unmarked) [Compound 20] | 0.1 to 0.5 | 0.5 to 0.9 | ++ (++ indicates 40-79% compound remaining after 4 hours) | + (+ indicates maximum potency at or above 100 nM) | +++ (+++ indicates 80-99% compound remaining after 4 hours) | ++++ (++++ indicates distribution above 70%) | ++++ (++++ indicates distribution above 70%) | ++++ (++++ indicates distribution above 70%) | +++ (+++ indicates distribution between 40 and 69%) | +++ (+++ indicates 80-99% compound remaining after 4 hours) | +++ (+++ indicates 80-99% compound remaining after 4 hours) | +++ (+++ indicates 80-99% compound remaining after 4 hours) | – | ++++ (++++ indicates distribution above 70%)
